Laboratory results reported in patent US20230285389A1, “USE OF CSF-1R KINASE INHIBITOR” (Shanghai Runshi Medical Technology Co., Ltd, priority 2020, published 2023).

How the values were obtained:
[1] = system: IL4/IL13-polarized murine BMDMs; experiment: M2-biased polarization phenotype of BMDMs, flow cytometry of surface markers; type: cell-based, BALB/c mice; settings: mouse-derived BMDM, 48 h
Method: BALB/c mice (female, 6 weeks old, healthy) were sacrificed. Bone marrow cells were taken from their femurs and tibia, and seeded into a 6-well culture plate at appropriate densities ([…], per well) after erythrobiasis treatment. 100 ng/mL of CSF-1 factor was added to each well to induce macrophages (Bone marrow-derived macrophages, BMDM). After 7 days of induction, the cell culture medium was changed. CSF-1 factor was added at the same concentration as above, and M2 polarization of macrophages was induced with 10 ng/mL of IL4 and 10 ng/mL of IL13. While inducing polarization, compounds at various concentrations were added into test wells and negative control wells. After 48 h, the cells were harvested for flow cytometric analysis.
Cells in good condition were collected, and first washed twice with PBS. After washing, each sample was re-suspended with 100 µL of PBS and 0.5 µL of the fluorescent antibody prepared according to the manufacturer’s instructions to distinguish dead and live cells was added. The samples were stained in the dark at 4° C. for 30 min. After 30 min, the samples were washed twice with 1mL of the running buffer and the tubes were centrifuged at 300 g for 5 min at 4° C. The blocking antibody diluent was prepared by adding 2 µL of blocking antibody TruStain fcX™ (anti-mouse CD16/32) per 100 µL running buffer and was added on the basis of the 100 µL system of each sample. After blocking for 10 min, according to the manufacturer’s instructions, the fluorescent antibody corresponding to the surface protein was added to the samples, and the reactant was allowed for incubation at 4° C. for 30 min. At this step, a single staining control and an FMO control were set. Then, the samples were washed twice with 1 mL of the running buffer, and centrifuged at 300 g for 5 min at 4° C. each time.
If only surface proteins were to be examined, after centrifugation, the samples were re-suspended with 300 µL of PBS and immediately input into machines, or the samples were fixed with 4% paraformaldehyde for 15 min, and centrifuged at 500 g for 7 min. […]

[2] = system: mouse colon cancer MC38 xenografts; experiment: Pharmacodynamic experiment, growth of subcutaneous MC38 xenografts; type: in vivo; settings: for TV (mean ±SEM) D0: day 0 (baseline); for TGI D7 / TV (mean ±SEM) D7: day 7; for TGI D14 / TV (mean ±SEM) D14: day 14; for TGI D20 / TV (mean ±SEM) D20: day 20; for TGI D24 / TV (mean ±SEM) D24: day 24
Method: MC38 cells in good condition were re-suspended to 25 million cells/mL. 200 µL of cell suspension was inoculated subcutaneously in the right armpit of each mouse. When the tumor cells formed subcutaneous xenograft in the mice and grew to an average volume of approximately 100 mm^3, the mice were randomly assigned to the dosing group and the control group. The test compounds were prepared at the desired concentrations and corresponding equal amount of solvent was used as a solvent control. The drugs were administrated orally, and administrated once per day for 24 consecutive days.
During the dosing period, the xenograft volumes of the mice and the weights of the mice were measured every 2-4 days. The experiment was terminated 24 days after dosing.
The tumor volume (TV) was calculated as TV = ½×a×b^2, where “a” and “b” are the length and width of an xenograft, respectively.
Statistical tests were performed using the t test, with p≤0.05 representing a significant difference.

[3] = system: CSF-1-induced human macrophages (PBMC-derived CD14+ monocytes); experiment: Survival of CSF-1-induced human macrophages from PBMC (CCK-8); type: cell-based; settings: Homo sapiens, 168 h, read-out: IC50 inhibition of cell survival, PBMC (CSF-1)
Method: Cryopreserved human-derived peripheral blood (peripheral blood from healthy donors) mononuclear cells (PBMCs) were taken out of liquid nitrogen for recovery. After recovery, the cells were re-suspended at 50 million/mL with the running buffer and DNAase I was added at a final concentration of 100 µg/mL and the plate was allowed for incubation for 15 min at room temperature. After centrifugation at 300 g for 5 min, the supernatant was discarded. The pellet was re-suspended at 50 million cells/mL with the running buffer, and the suspension was filtered through a 70 µM filter screen into a flow tube. The cells were sorted by using CD14+ monocyte negative selection beads sorting kit from […] company. According to the manufacture’s instructions, the specific experimental procedures were as follows.
After cells were re-suspended at 50 million cells/mL, 50 µL of the cocktail was added to each one mL of samples. The samples were incubated at room temperature for 5 min. The magnetic beads were vortexed for 30 sec, and added to the samples. The samples were incubated for further 5 min. The sample volumes were made up to 2.5 mL. The samples were placed on a magnetic frame ([…], #18000) for 2.5 min. […] The plate was placed in an incubator at 37° C. for 2-4 h, and then was read with an adjustable wavelength microplate reader setting at a wavelength of 450 nm.

CNC(=O)c1cccc2cc(Oc3ccnc(NC(=O)c4ccc(N5C[C@@H](C)N[C@@H](C)C5)cc4)c3)ccc12 [Compound I]
expression level of surface marker CD206 (M2-type marker) ([1]; 25, 50 and 100 nM): significantly inhibit
expression level of surface marker CD86 (M1-type marker) [1]: significantly enhance
expression level of surface marker MHC-II (M1-type marker) [1]: significantly enhance
TV (mean ±SEM) D0 ([2]; 2.5 mg/kg oral once per day): 79±13 mm3
TGI D7 ([2]; 2.5 mg/kg oral once per day): 63.3%
TV (mean ±SEM) D7 ([2]; 2.5 mg/kg oral once per day): 119±17 mm3
TGI D14 ([2]; 2.5 mg/kg oral once per day): 63.0%
TV (mean ±SEM) D14 ([2]; 2.5 mg/kg oral once per day): 232±39 mm3
TGI D20 ([2]; 2.5 mg/kg oral once per day): 74.6%
TV (mean ±SEM) D20 ([2]; 2.5 mg/kg oral once per day): 281±59 mm3
TGI D24 ([2]; 2.5 mg/kg oral once per day): 75.3%
TV (mean ±SEM) D24 ([2]; 2.5 mg/kg oral once per day): 348±80 mm3
TV (mean ±SEM) D0 ([2]; 10 mg/kg oral once per day): 79±12 mm3
TGI D7 ([2]; 10 mg/kg oral once per day): 100.9%
TV (mean ±SEM) D7 ([2]; 10 mg/kg oral once per day): 78±15 mm3
TGI D14 ([2]; 10 mg/kg oral once per day): 90.1%
TV (mean ±SEM) D14 ([2]; 10 mg/kg oral once per day): 120±42 mm3
TGI D20 ([2]; 10 mg/kg oral once per day): 95.2%
TV (mean ±SEM) D20 ([2]; 10 mg/kg oral once per day): 117±46 mm3
TGI D24 ([2]; 10 mg/kg oral once per day): 93.4%
TV (mean ±SEM) D24 ([2]; 10 mg/kg oral once per day): 150±64 mm3
growth of murine colon cancer MC38 cell xenografts ([2]; oral once per day for 24 days): significantly inhibited
IC50 [3]: 30.5 ± 5.1 nM
